{"source": "paper PMC6985185", "about": "(Breast cancer research and treatment, 2019)", "key": {"uterus": {"system": "uterus", "assay": "Uterine wet weight in LTED tumor bearing mice", "assay_type": "in vivo, Nu:J mice", "settings": "ovariectomized LTED tumor bearing mice, after 4 weeks of treatment at the LTED study doses"}, "TamR xenograft tumors": {"system": "TamR xenograft tumors", "assay": "TamR Study 2: growth of tamoxifen-resistant xenograft tumors under oral SERDs"}}}
{"smiles": "N#Cc1ccc(C(c2ccc(C#N)cc2)n2cncn2)cc1", "note": "[Letrozole, letrozole]", "values": [{"measurement": "Uterine wet weight (measure of uterine stimulation)", "setting": "uterus", "value": "no response of uterine weight"}]}
{"smiles": "CC/C(=C(/c1ccc(/C=C/C(=O)O)cc1)c1ccc2[nH]ncc2c1)c1ccc(F)cc1Cl", "note": "[GDC0810]", "values": [{"measurement": "% tumor growth inhibition of TamR tumors", "setting": "TamR xenograft tumors; GDC0810 25 mg/kg po qd, day 0 of treatment", "value": "−5", "unit": "%"}, {"measurement": "% tumor growth inhibition of TamR tumors", "setting": "TamR xenograft tumors; GDC0810 25 mg/kg po qd, day 2 of treatment", "value": 11, "unit": "%"}, {"measurement": "% tumor growth inhibition of TamR tumors", "setting": "TamR xenograft tumors; GDC0810 25 mg/kg po qd, day 4 of treatment", "value": 22, "unit": "%"}, {"measurement": "% tumor growth inhibition of TamR tumors", "setting": "TamR xenograft tumors; GDC0810 25 mg/kg po qd, day 7 of treatment", "value": 28, "unit": "%"}, {"measurement": "% tumor growth inhibition of TamR tumors", "setting": "TamR xenograft tumors; GDC0810 25 mg/kg po qd, day 9 of treatment", "value": 27, "unit": "%"}, {"measurement": "% tumor growth inhibition of TamR tumors", "setting": "TamR xenograft tumors; GDC0810 25 mg/kg po qd, day 11 of treatment", "value": 35, "unit": "%"}, {"measurement": "% tumor growth inhibition of TamR tumors", "setting": "TamR xenograft tumors; GDC0810 25 mg/kg po qd, day 14 of treatment", "value": 32, "unit": "%"}, {"measurement": "% tumor growth inhibition of TamR tumors", "setting": "TamR xenograft tumors; GDC0810 25 mg/kg po qd, day 16 of treatment", "value": 42, "unit": "%"}, {"measurement": "% tumor growth inhibition of TamR tumors", "setting": "TamR xenograft tumors; GDC0810 25 mg/kg po qd, day 18 of treatment", "value": 51, "unit": "%"}, {"measurement": "% tumor growth inhibition of TamR tumors", "setting": "TamR xenograft tumors; GDC0810 25 mg/kg po qd, day 21 of treatment", "value": 49, "unit": "%"}, {"measurement": "% tumor growth inhibition of TamR tumors", "setting": "TamR xenograft tumors; GDC0810 25 mg/kg po qd, day 23 of treatment", "value": 53, "unit": "%"}, {"measurement": "% tumor growth inhibition of TamR tumors", "setting": "TamR xenograft tumors; GDC0810 25 mg/kg po qd, day 25 of treatment", "value": 53, "unit": "%"}, {"measurement": "% tumor growth inhibition of TamR tumors", "setting": "TamR xenograft tumors; GDC0810 25 mg/kg po qd, day 28 of treatment", "value": 52, "unit": "%"}, {"measurement": "Uterine wet weight (measure of uterine stimulation)", "setting": "uterus", "value": "significantly increased uterine weight"}]}
{"smiles": "C[C@@H]1Cc2c([nH]c3ccccc23)[C@@H](c2c(F)cc(/C=C/C(=O)O)cc2F)N1CC(C)(C)F", "note": "[AZD9496]", "values": [{"measurement": "% tumor growth inhibition of TamR tumors", "setting": "TamR xenograft tumors; AZD9496 10 mg/kg po qd, day 0 of treatment", "value": "−3", "unit": "%"}, {"measurement": "% tumor growth inhibition of TamR tumors", "setting": "TamR xenograft tumors; AZD9496 10 mg/kg po qd, day 2 of treatment", "value": 13, "unit": "%"}, {"measurement": "% tumor growth inhibition of TamR tumors", "setting": "TamR xenograft tumors; AZD9496 10 mg/kg po qd, day 4 of treatment", "value": 18, "unit": "%"}, {"measurement": "% tumor growth inhibition of TamR tumors", "setting": "TamR xenograft tumors; AZD9496 10 mg/kg po qd, day 7 of treatment", "value": 27, "unit": "%"}, {"measurement": "% tumor growth inhibition of TamR tumors", "setting": "TamR xenograft tumors; AZD9496 10 mg/kg po qd, day 9 of treatment", "value": 24, "unit": "%"}, {"measurement": "% tumor growth inhibition of TamR tumors", "setting": "TamR xenograft tumors; AZD9496 10 mg/kg po qd, day 11 of treatment", "value": 30, "unit": "%"}, {"measurement": "% tumor growth inhibition of TamR tumors", "setting": "TamR xenograft tumors; AZD9496 10 mg/kg po qd, day 14 of treatment", "value": 31, "unit": "%"}, {"measurement": "% tumor growth inhibition of TamR tumors", "setting": "TamR xenograft tumors; AZD9496 10 mg/kg po qd, day 16 of treatment", "value": 32, "unit": "%"}, {"measurement": "% tumor growth inhibition of TamR tumors", "setting": "TamR xenograft tumors; AZD9496 10 mg/kg po qd, day 18 of treatment", "value": 36, "unit": "%"}, {"measurement": "% tumor growth inhibition of TamR tumors", "setting": "TamR xenograft tumors; AZD9496 10 mg/kg po qd, day 21 of treatment", "value": 43, "unit": "%"}, {"measurement": "% tumor growth inhibition of TamR tumors", "setting": "TamR xenograft tumors; AZD9496 10 mg/kg po qd, day 23 of treatment", "value": 47, "unit": "%"}, {"measurement": "% tumor growth inhibition of TamR tumors", "setting": "TamR xenograft tumors; AZD9496 10 mg/kg po qd, day 25 of treatment", "value": 46, "unit": "%"}, {"measurement": "% tumor growth inhibition of TamR tumors", "setting": "TamR xenograft tumors; AZD9496 10 mg/kg po qd, day 28 of treatment", "value": 43, "unit": "%"}, {"measurement": "Uterine wet weight (measure of uterine stimulation)", "setting": "uterus", "value": "significantly increased uterine weight"}]}
